What was measured:
CYP3A5 = assay: Cutaneous expression and regulation by ATRA of additional CYP450s; format: in vivo
CYP1A1 mRNA expression = CYP1A1 mRNA expression in skin of volunteer panel after topical chemicals; format: in vivo, human; details: topical application, data not shown
human liver microsomes = assay: atRA metabolism by human liver microsomes (HPLC); format: in vitro ADME; details: confirmed with authentic standard
Protocol: (§1) E. Coli membranes co-expressing CYP2S1 and CPR were incubated with atRA as previously described^17. CYP2S1-derived atRA metabolites (FIG. 4A) were separated by HPLC and identified by comparison with the elution profile of human liver microsomes (FIG. 4B). Control incubations were performed in the absence of the NADPH regenerating system (FIG. 4C).
(§2) The CYP2S1 cDNA, a generous gift from Professor Oliver Hankinson, Department of Pathology and Laboratory Medicine, Jonsson Comprehensive Cancer Centre and Molecular Biology Institute, UCLA, Los Angeles was constructed and co-expressed with CPR in E. Coli as previously described^16. CYP2S1 metabolism of atRA was performed using HPLC analysis as previously described^17, using E. coli membranes co-expressing CYP2S1 and CPR and an NADPH regenerating system. Control reactions were performed in the absence of CYP2S1 and in the absence of the NADPH regenerating system. CYP2S1 metabolites were identified by comparison with elution times and UV profiles of atRA metabolites generated by human liver microsomes which had previously been identified using authentic standards.

CYP2S1 = molecular target: T1, CYP2S1 (Homo sapiens, UniProt Q96SQ9); assay: atRA metabolism by heterologously expressed CYP2S1 (E. coli membranes co-expressing CYP2S1 and CPR, HPLC); format: in vitro ADME; details: NADPH regenerating system
T1 construct: made in house; host or cells: E. coli (membrane fraction)
T1 sequence (Q96SQ9 1-504): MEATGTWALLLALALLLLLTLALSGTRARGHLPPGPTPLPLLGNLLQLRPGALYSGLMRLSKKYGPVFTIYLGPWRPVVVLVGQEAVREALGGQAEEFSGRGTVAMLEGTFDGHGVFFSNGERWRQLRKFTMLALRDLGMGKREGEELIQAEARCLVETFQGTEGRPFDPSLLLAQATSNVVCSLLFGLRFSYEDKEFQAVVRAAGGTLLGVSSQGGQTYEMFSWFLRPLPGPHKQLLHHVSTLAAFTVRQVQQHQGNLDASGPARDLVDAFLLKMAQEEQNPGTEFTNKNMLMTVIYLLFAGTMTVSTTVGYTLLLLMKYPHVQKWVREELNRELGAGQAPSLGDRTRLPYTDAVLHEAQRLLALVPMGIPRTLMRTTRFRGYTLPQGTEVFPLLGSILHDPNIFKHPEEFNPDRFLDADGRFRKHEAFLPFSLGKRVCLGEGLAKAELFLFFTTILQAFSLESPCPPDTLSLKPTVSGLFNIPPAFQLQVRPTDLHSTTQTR
Protocol: as §1, §2

CYP2S1 mRNA expression = CYP2S1 mRNA expression in skin after topical chemicals (Taqman quantitative real-time RT-PCR); format: in vivo, human; details: healthy volunteers, occluded 96 hours on buttock skin, vs control skin

CC1=C(/C=C/C(C)=C/C=C/C(C)=C/C(=O)O)C(C)(C)CCC1 [atRA, all-trans retinoic acid]
inducibility of CYP3A5 in human skin (CYP3A5): not inducible
effect on CYP1A1 mRNA expression (CYP1A1 mRNA expression): suppressed
formation of 4-oxo RA metabolite by human liver microsomes (human liver microsomes): produced by human liver microsomes
atRA metabolites produced by CYP2S1 (CYP2S1): 4-OH-RA and 5,6-epoxy RA
formation of 4-oxo RA metabolite by CYP2S1 (CYP2S1): did not appear to produce
individuals showing marked CYP2S1 induction (mRNA) (CYP2S1 mRNA expression): 6/14

— patent US20070166712A1, “Cyp2s1 as target for diagnosis and therapy of skin diseases” (UNIVERSITY COURT OF THE UNIVERSITY OF DUNDEE, priority 2003, published 2007)
